One data set relates to metastatic SCLC. The conditions noted are these: 37 of 102 patients; 95% CI 26.2-45.2; cited from earlier work.
For data set [1] the following is noted: clinical testing; cited from earlier work.
Data set [2] deals with pChK1, pRPA32, TH2AX in SCLC cell lines. Nature of the data set: Western blot of DNA damage markers (Example 1). Format: cell-based. The conditions noted are these: 1 nM for 24 or 48 hours, sensitive cell lines. Here is the method: (§1) A 12 SCLC cell line panel representing SCLC-A, N, P and I subtypes, developed at MD Anderson Cancer Center, was screened against lurbinectedin in 96 hr proliferation assays (FIG. 2). Western Blotting: Three SCLC cell lines were treated with 1 nM of lurbinectedin for 24 and 48h and then subjected for protein isolation and Western blotting for pChK1, pRPA32, TH2AX.

Data set [3] concerns cGAS, phospho STING, PD-L1 in SCLC cells. Nature of the data set: Western blot of cGAS-STING pathway and PD-L1. The conditions noted are these: 24 and 48h. It counts as cell-based, human. Here is the method:
(§2) Protein lysate were isolated from SCLC cells treated with 0.9 nM lurbinectedin or DMSO for 24 and 48h. Nitrocellulose membranes were incubated with primary antibodies (1:1000) for Human SLFN11 (Santa Cruz Biotechnology), phospho-(S345) CHK1 Cell Signaling Technologies (CST), phospho-(S4/S8) RPA32 (Bethyl laboratories), phospho-(S139) TH2AX (CST), cleaved caspase-3 (CST), phospho-(S366) STING (SAB Biotech), cGAS (CST), PD-L1(CST), GAPDH (Santa Cruz Biotechnology) and Vinculin (Sigma-Aldrich) overnight. Secondary anti-goat, anti-mouse (Santa Cruz Biotechnology) and anti-rabbit HRP linked antibodies (CST) were used and detected using the Chemidoc imaging system, image captured with Image Studio Version 3.1 software (BioRad).

The test system of a further data set is DMS79 xenografts. Nature of the data set: Flank xenograft efficacy study, SLFN11 high. Format: in vivo, mouse. The conditions noted are these: 0.1 mg/kg i.v. once per week. How it is done:
(§3) For the […] mouse model, 6-week-old female athymic nude mice (Envigo) were used. Animals were maintained in accordance with the Institutional Animal Care and Use Committee (IACUC) of The University of Texas MD Anderson Cancer Center and the NIH Guidelines for the Care and Use of Laboratory Animals. Experiments were performed under protocol: 00001191-RN03.
(§4) High SLFN11 protein expressing SCLC cell line DMS79 and low SLFN11 protein expressing cell line H865 were used for generation of xenografts. For subcutaneous injections, 1×10^6 SCLC cells were injected into one flank of each mouse with PBS: Matrigel (1:1, BD Biosciences). At an average tumor volume of 100 mm^3, mice were randomly allocated to three groups (n=5). Mice received either Vehicle (0.9% saline), lurbinectedin (0.1 mg/kg i.v. once per week), or cisplatin (6 mg/kg i.p. once per week). Tumor volumes were measured every other day using digital calipers.
(§5) Differences in IC50 values between subgroups were tested using ANOVA. Differences between SLFN11 high and low groups, defined using the bi-modality index were tested using an un-paired t-test. Spearman rank correlation was used to assess the association between IC50 values and RPPA protein markers, The Benjamini & Hochberg (1995) method was used to control false discovery rate (FDR). […]

For a further data set, the system named is DMS79 and H209 cells. Nature of the data set: Proliferation assay after siRNA knockdown of SLFN11. The conditions noted are these: DMS79 and H209, versus parental and scrambled siRNA controls. It counts as cell-based, human. How it is done:
For SLFN11 gene silencing, pooled small interfering RNAs (siRNAs) targeting SLFN11 (L-016764-01-0005) or its corresponding scramble control (D-001810-10-05; GE Dharmacon) were transfected into DMS79 and H209 cells for 72 hours using Lipofectamine 2000 (Invitrogen) according to the manufacturer's protocol. The cells were then plated for 96h proliferation assays. Knock down efficiency was validated by Western blotting.

In the next data set the test system is human SCLC cell lines. The experiment in a line: Cell proliferation assay (Cell Titer Glo), panel of 21 human SCLC cell lines. The settings on record: for IC50: 21 human SCLC cell lines. It counts as cell-based. How it is done: Human SCLC cell lines (21 cell lines) were purchased from ATCC. Cell lines were tested and authenticated by short tandem repeat profiling (DNA fingerprinting) and not cultured for greater than 6-months and were routinely tested for Mycoplasma contamination. Cell lines were cultured in either RPMI or HITES medium with 10% fetal bovine serum and 1% pen-strep, at 37° C. in a humidified chamber with 5% C02.
Cells were seeded in 96-well plates at 2,000 cells per well in triplicate for each cell line. After 24 hours, the cells in each well were treated with a lurbinectedin or with vehicle control. Four days later, proliferation was assayed by Cell Titer Glo (Promega, Fitchburg, WI). For single drug treatments, median inhibitory concentration (IC50) values were estimated by the Drexplorer software using date from duplicate experiments (14). For drug combinations, the area under the curve (AUC) of the observed (or experimental) effect of the combination was compared to the predicted additive effect. Data was subsequently presented as a ratio of the experimental effect relative to the predicted additive effect based on the Bliss Independence model, as previously reported (15). Using 10% above or below the predicted additive effect as a cut-off, the inventors then assigned the following groups: Observed/predicted<−0.1=greater than additive; […]; Observed/predicted <0.1 and >−0.1=additive.
Differences in IC50 values between subgroups were tested using ANOVA. Differences between SLFN11 high and low groups, defined using the bi-modality index (16), were tested using an un-paired t-test. Spearman rank correlation was used to assess the association between IC50 values and RPPA protein markers, The Benjamini & Hochberg (1995) method (17) was used to control false discovery rate (FDR). RPPA generates a quantitative measurement of expression of over 200 total and phosphorylated proteins, these values can be correlated to other variables such as IC50 values, and be compared between biomarker defined groups using standard statistical techniques. All analyses were performed using the R software.

For another data set, the system named is SLFN11. Nature of the data set: Western blot of SLFN11 expression after treatment. Format: cell-based, human. How it is done:
as §2

The subject of another data set is H865 xenografts. The experiment in a line: Flank xenograft efficacy study, SLFN11 low. It counts as in vivo, mouse. The settings on record: H865, lower SLFN11; 0.1 mg/kg i.v. once per week. Here is the method: as §3, §4, §5
The subject of data set [4] is phospho CHK1(S345), phospho RPA32(S4/S8), phospho TH2AX in SCLC cells. Nature of the data set: Western blot of replication stress and DNA damage markers (Example 2). It counts as cell-based, human. The settings on record: 0.9 nM, 24 and 48h, versus DMSO, all four subtypes. How it is done:
as §2
Based on its mechanism of action, the inventors predicted that lurbinectedin would lead to increased replication stress and DNA damage in SCLC models. To test this, SCLC cells from all four subtypes were treated with lurbinectedin (0.9 nM/L) for 24 and 48h and markers of DNA damage and replication stress were assayed by Western blot.

The next data set concerns SCLC cell lines. Nature of the data set: 96 hr proliferation assay, SCLC cell line panel (Example 1). The conditions noted are these: for IC50: 12 human-derived and 3 mouse model-derived SCLC cell lines. Format: cell-based, human and mouse. Here is the method: In this preclinical study, the inventors investigated the therapeutic efficacy of lurbinectedin in large number of profiled SCLC cell lines representing the four SCLC subtypes (A, N, P and I) to identify candidate markers of drug sensitivity and resistance.
as §1

“And” between values parts separate entries of the source, which are not always exact repeats. Identical values can stand only once. Like-named read-outs stand apart in the source and are kept apart here.

As to `COc1ccc2[nH]c3c(c2c1)CCN[C@]31CS[C@@H]2c3c(OC(C)=O)c(C)c4c(c3[C@H](COC1=O)N1[C@@H]2[C@H]2c3c(cc(C)c(OC)c3O)C[C@@H]([C@@H]1O)N2C)OCO4` [lurbinectedin, Lurbinectedin], the “overall response by investigator assessment” value with metastatic SCLC is 35.2%. In addition, in [1], the peak plasma concentration was 148.2-153.8 ng/mL and 188.8-196.0 nM. For the same compound, the “markers of DNA damage (TH2AX, ChK1, RPA32)” value in data set [2] is “increased markers of DNA damage”. Further, in data set [3], the “phospho STING and PD-L1” value is “only observed in cell lines from the SCLC-P and SCLC-I subtypes”. Further, in data set [3] (versus DMSO, all cell lines tested), the “protein levels of cGAS” value is given as “induced an increase”. Further, the “tumor growth versus vehicle” value with DMS79 xenografts is given as “significantly reduced tumor growth”. Moreover, the “sensitivity after SLFN11 knockdown” value in the data set on DMS79 and H209 cells is given as “reduced sensitivity”. Moreover, the IC50 in the data set with human SCLC cell lines (read-out: IC50 range) is 0.06 to 1.83 nM; with human SCLC cell lines (read-out: median IC50), 0.46 nM; with SCLC cell lines (read-out: IC50 range) it was 0.08 to 1.84 nM; with SCLC cell lines (read-out: median IC50), 0.52 nM. Also, the “difference in in vitro activity between subtypes” value in the data set with human SCLC cell lines (SCLC-A, SCLC-N, SCLC-P, SCLC-I) is “no significant difference”. For the same compound, in the data set with human SCLC cell lines (bimodal separation of SLFN11 by RPPA), the “fold change (FC) of IC50 between SLFN11 high and low cell lines” value is 3.26 and 3.2. In addition, the “change in SLFN11 levels” value is “minimal decrease” in the data set with SLFN11 (DMS-79) and “undetectable level” with SLFN11 (H1048). Moreover, the sensitivity of xenografts entry in the data set with H865 xenografts is “significantly less sensitive”. In addition, in data set [4], the “markers of replication stress phospho CHK1(S345) and phospho RPA32(S4/S8)” value is reported as “increases in markers of replication stress”. In addition, the “IC50 of SLFN11-high versus SLFN11-low SCLC cells” value in the data set with SCLC cell lines (p=0.0035 by t-test) is listed as “lower IC50 than SLFN11-low cells”. Also, the “subtype specific difference in sensitivity” value in the data set with SCLC cell lines (subtypes A, N, P and I) is given as “no subtype specific difference”.

Source of the values: patent publication US20240207261A1, “METHODS FOR TREATING SMALL CELL LUNG CANCER AND OTHER NEUR[…]” (BOARD OF REGENTS, THE UNIVERSITY OF TEXAS SYSTEM, priority 2021, published 2024).
